Reference: ChEMBL document CHEMBL1201862, “PubChem BioAssay data set” (2004)
Active and inactive are the calls of the source.

Columns and labels:
[1] = A cytotoxicity screen of small molecule inhibitors of the PhoP region in Salmonella typhi identified in the primary screen. [Related pubchem assays: 1850, 1864, 1985 ]; assay type: functional
[2] = target: Cytochrome P450 3A4 (Homo sapiens, UniProt P08684); conditions: Potency;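 note: confirmatory qHTS run detecting inhibitors and substrates of CYP3A4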
[3] = target: T1, Oxysterols receptor LXR-beta (Homo sapiens, UniProt P55055); assay type: functional, cell-based;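 note: agonist activity at LXR measured by a cell-based luminescence readout across a dose range, run as a counterscreen for daf-12 agonists; HEK293 cells with Gal4-LXR fusion and GAL4-driven luciferase reporter; potency for activation of Gal4-LXR reporter so compounds are agonists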
T1 sequence (P55055 whole entry): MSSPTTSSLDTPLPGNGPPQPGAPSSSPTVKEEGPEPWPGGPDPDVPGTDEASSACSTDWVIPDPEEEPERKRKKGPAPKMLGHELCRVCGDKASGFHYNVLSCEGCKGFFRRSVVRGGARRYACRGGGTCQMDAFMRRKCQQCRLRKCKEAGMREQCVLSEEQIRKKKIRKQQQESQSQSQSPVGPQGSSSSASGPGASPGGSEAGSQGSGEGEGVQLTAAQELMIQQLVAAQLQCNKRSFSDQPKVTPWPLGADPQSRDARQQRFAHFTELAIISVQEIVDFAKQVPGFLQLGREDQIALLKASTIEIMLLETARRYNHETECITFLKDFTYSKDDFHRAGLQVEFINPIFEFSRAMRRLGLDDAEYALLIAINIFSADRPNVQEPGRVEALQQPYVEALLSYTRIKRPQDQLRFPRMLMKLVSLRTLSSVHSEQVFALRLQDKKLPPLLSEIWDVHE

[4] = THP-1 cell cytotoxicity, dose response, cytotoxicity control for Vif-APOBEC3G degradation inhibitor project, THP-1 cells (AID 1117359); assay type: functional; conditions: Human immunodeficiency virus 1, THP-1
[5] = target: T2, Rac GTPase-activating protein 1 (Homo sapiens, UniProt Q9H0H5); assay: MgcRacGAP GTPase-activating activity inhibitors, confirmation, biochemical, ADP Hunter fluorescence, primary and confirmatory (AID 624330); assay type: functional
T2 sequence (Q9H0H5 whole entry): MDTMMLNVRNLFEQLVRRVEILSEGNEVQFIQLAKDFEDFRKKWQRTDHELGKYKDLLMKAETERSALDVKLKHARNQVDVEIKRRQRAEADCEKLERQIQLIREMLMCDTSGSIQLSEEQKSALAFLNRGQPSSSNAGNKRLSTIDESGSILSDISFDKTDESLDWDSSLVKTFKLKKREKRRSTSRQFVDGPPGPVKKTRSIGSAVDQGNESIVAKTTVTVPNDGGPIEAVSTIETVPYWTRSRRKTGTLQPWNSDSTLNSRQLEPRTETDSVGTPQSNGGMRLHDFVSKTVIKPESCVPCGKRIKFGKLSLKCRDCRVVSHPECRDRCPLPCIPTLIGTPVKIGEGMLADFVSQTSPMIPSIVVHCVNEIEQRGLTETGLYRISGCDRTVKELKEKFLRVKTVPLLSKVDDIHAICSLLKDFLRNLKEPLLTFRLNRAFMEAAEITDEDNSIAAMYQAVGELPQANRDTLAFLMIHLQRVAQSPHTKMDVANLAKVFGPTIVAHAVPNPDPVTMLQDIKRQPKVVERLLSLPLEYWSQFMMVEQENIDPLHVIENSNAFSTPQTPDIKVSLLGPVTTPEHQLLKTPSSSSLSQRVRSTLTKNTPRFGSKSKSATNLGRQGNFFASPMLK

[6] = HeLa cell cytotoxicity, dose response, cytotoxicity control for MgcRacGAP inhibitor project (AID 624300); assay type: functional
[7] = target: Luciferin 4-monooxygenase (Photinus pyralis, UniProt P08659); assay: firefly luciferase enzyme inhibitors, dose response, biochemical, luminescence (AID 1891)
[8] = target: Large T antigen (Simian virus 40, UniProt P03070); assay type: functional, Betapolyomavirus macacae;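 note: Confirmatory-stage PubChem screen for compounds that inhibit SV40 T antigen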
[9] = HepG2 cell cytotoxicity, dose response, cytotoxicity control, ATP luminescence, cherry-pick, activator set 2 (AID 1053143); assay type: functional, cell-based
[10] = Luminescence Cell-Based Dose Confirmation HTS to Identify Inhibitors of Platelet Dense Granule Release. [Related pubchem assays: 1663 (Primary HTS), 1678 (Summary of Project)]; assay type: functional
[11] = P. falciparum Dd2 growth inhibitors, dose response, SYBR Green, dry powder samples, set 9 (AID 1159568); assay type: functional, cell-based
[12] = P. falciparum ATP4 D1247Y mutant growth inhibitors, dose response, NITD609-resistant line, SYBR Green, dry powder (AID 1159571); assay type: functional, cell-based;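 note: parasites synchronized at ring stage by sorbitol before testing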
[13] = P. falciparum Dd2 growth inhibitors, dose response, SYBR Green, cherry-picked samples (AID 1159567); assay type: functional, cell-based
[14] = P. falciparum 3D7-ScDHODH growth inhibitors, dose response, SYBR Green, dry powder samples (AID 1159570); assay type: functional, cell-based;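 note: parasite growth measured after 72 hours of compound exposure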
[15] = P. falciparum Dd2 growth inhibitors, dose response, SYBR Green, dry powder samples (AID 1159566); assay type: functional, cell-based;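 note: potency for growth inhibition with lower SYBR green DNA signal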

Chain of Cytochrome P450 3A4 (P08684 whole entry, the tested form may be a part): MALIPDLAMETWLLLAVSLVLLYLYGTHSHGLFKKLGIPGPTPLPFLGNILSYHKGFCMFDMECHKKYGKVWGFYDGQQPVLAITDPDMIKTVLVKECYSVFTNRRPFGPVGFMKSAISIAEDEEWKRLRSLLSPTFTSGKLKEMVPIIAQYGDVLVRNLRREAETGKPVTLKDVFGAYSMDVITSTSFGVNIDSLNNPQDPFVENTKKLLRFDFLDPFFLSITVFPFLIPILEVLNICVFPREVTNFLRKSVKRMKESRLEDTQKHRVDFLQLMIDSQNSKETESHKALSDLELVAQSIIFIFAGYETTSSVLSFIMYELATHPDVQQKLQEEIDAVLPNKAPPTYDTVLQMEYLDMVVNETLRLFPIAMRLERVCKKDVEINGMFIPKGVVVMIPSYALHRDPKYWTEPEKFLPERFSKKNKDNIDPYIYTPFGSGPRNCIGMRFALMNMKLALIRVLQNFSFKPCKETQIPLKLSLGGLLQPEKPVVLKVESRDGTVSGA
Chain of Luciferin 4-monooxygenase (P08659 whole entry): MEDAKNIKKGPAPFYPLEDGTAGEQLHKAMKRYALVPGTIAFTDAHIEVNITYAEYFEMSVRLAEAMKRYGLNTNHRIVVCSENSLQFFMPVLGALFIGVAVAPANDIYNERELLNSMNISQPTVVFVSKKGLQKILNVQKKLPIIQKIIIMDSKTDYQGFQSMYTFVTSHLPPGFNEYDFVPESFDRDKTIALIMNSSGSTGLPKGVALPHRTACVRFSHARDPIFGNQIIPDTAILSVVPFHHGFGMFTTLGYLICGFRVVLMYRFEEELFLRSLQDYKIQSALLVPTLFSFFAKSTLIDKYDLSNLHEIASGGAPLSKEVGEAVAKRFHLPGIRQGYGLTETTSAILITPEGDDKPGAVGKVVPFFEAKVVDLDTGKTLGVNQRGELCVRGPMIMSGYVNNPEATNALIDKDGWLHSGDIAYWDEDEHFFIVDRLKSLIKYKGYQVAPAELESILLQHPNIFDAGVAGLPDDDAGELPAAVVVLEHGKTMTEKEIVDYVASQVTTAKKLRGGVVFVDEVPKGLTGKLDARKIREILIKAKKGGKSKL
Chain of Large T antigen (P03070 whole entry): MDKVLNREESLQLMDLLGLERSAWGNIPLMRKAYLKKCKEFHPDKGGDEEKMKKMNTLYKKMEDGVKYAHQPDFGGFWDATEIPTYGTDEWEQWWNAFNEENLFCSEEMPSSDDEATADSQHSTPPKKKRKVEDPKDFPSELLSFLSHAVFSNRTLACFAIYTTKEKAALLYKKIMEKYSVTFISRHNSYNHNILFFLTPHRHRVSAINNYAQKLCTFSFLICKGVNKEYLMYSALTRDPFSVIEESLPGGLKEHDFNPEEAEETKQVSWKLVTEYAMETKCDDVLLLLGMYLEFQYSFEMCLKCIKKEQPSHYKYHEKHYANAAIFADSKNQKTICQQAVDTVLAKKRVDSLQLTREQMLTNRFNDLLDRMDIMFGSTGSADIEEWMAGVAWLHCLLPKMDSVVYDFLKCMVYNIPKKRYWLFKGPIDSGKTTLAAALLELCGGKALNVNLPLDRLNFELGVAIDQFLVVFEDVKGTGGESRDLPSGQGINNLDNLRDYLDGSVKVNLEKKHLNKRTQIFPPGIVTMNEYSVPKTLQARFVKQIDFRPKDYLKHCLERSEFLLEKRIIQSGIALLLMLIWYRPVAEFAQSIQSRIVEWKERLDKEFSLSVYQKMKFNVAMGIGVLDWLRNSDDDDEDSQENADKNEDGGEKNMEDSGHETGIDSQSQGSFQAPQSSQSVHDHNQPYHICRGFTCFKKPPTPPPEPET

Cc1ccc(OCc2nnc(NC(=O)c3cccnc3)s2)cc1
EC50 [1]: > 50 µM (active)

CC(C)C1=CC2=CCC3[C@@](C)(CCC[C@@]3(C)C(=O)O)C2CC1 (stereo partly specified)
AC50 [2]: 39.8 µM (inconclusive)

COc1ccc(Oc2cnn(-c3ccccc3)c(=O)c2Br)cc1
EC50 [3]: > 67.5 µM (inactive)

CN=c1ccccc(-c2ccc3cc4c(cc3n2)OCO4)c1O
CC50 [4]: > 40 µM (active)

Cc1ccc(NC(=S)NC(=O)C2CCCC2)c(Br)c1
EC50 [3]: > 67.5 µM (inactive)

Oc1ccc(/C=N/Nc2nccnc2Cl)cc1
IC50 [5]: 16.3 µM (active) | CC50 [6]: 46.1 µM (active) | EC50 [7]: 1.12 µM (active) | IC50 [8]: 6.32 µM (active) | AC50 [9]: 13.7 µM (active) | EC50 [10]: 0.138 µM (active)

O=C(NC1CCC1)c1ccc(C#CC2CC2)cn1
EC50 [3]: > 67.5 µM (inactive)

COc1ccc2c3c([nH]c2c1)[C@H](CO)N(S(C)(=O)=O)CC31CCN(C(=O)Nc2ccccc2)CC1
AC50 [11]: 0.145 µM (active)

C[C@@H]1CN([C@@H](C)CO)C(=O)c2cccc(NC(=O)C3CC3)c2O[C@@H]1CN(C)C(=O)Nc1ccc(C(F)(F)F)cc1
AC50 [12]: 0.322 µM (active) | AC50 [13]: 0.642 µM (active) | AC50 [14]: 0.312 µM (active) | AC50 [11]: 0.181 µM (active) | AC50 [15]: 0.275 µM (active)

O=C(Nc1cccc(F)c1)N1CCCCN2[C@H](CO)[C@@H](c3ccc(C#Cc4cccnc4)cc3)[C@@H]2C1
AC50 [11]: 2.58 µM (active)

N#Cc1cccc(-c2ccc3c(c2)[C@H]2[C@H](CCN2S(=O)(=O)c2ccc(F)cc2)[C@@H](CO)N3)c1
AC50 [11]: 8.37 µM (active)

O=c1c(O)c(-c2ccccc2)oc2cc(O)ccc12 [3,7-DIHYDROXYFLAVONE]
AC50 [2]: 39.8 µM (inconclusive)
